The record followed here is ChEMBL document CHEMBL5625191, “A review of progress in o-aminobenzamide-based HDAC inhibitors with dual targeting capabilities for cancer therapy” (Eur J Med Chem, 2023).

One assay relates to HEL. The assay is described as follows: Antiproliferative activity against human HEL cells assessed as inhibition of cell growth incubated for 48 hrs by MTT assay. The class given is functional, cell-based.
Assay [1] has as its target T1, Histone deacetylase 2 (Homo sapiens, UniProt Q92769). As to the kind of experiment: Inhibition of HDAC2 in human HeLa nuclear extract using Boc-Lys(Ac)-AMC or Boc-Lys(Tfa)-AMC as substrate preincubated for 5 mins followed by substrate addition and measured after 30 mins by fluorescence assay. It counts as cell-free.
In the next assay the target is Histone deacetylase 3 (Homo sapiens, UniProt O15379). As to the kind of experiment: Inhibition of HDAC3 in human HeLa nuclear extract using Boc-Lys(Ac)-AMC or Boc-Lys(Tfa)-AMC as substrate preincubated for 5 mins followed by substrate addition and measured after 30 mins by fluorescence assay. It counts as cell-free.
Sequence of Histone deacetylase 3 (O15379 whole entry): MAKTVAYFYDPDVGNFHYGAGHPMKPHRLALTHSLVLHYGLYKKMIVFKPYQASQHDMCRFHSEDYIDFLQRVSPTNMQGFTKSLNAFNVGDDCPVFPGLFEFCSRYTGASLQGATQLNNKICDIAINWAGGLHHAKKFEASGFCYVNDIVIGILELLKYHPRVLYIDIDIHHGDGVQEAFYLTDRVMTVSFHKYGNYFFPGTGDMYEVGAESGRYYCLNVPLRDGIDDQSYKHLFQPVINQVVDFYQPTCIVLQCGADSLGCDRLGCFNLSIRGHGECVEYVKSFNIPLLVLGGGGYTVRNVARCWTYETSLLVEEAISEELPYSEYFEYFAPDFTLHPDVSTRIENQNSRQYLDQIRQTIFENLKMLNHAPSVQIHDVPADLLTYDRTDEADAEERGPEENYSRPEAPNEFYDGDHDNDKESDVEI
Another assay deals with HeLa. The assay is described as follows: Antiproliferative activity against human HeLa cells assessed as inhibition of cell growth incubated for 48 hrs by MTT assay. The class given is functional, cell-based.
The next assay concerns Jurkat. The assay is described as follows: Antiproliferative activity against human Jurkat cells assessed as inhibition of cell growth incubated for 48 hrs by MTT assay. It counts as functional, cell-based.
Assay [2] deals with A549. As to the kind of experiment: Antiproliferative activity against human A549 cells assessed as inhibition of cell growth incubated for 48 hrs by MTT assay. The class given is functional, cell-based. Conditions: A549, 48 h.
In a further assay the test system is MOLT-4. As to the kind of experiment: Antiproliferative activity against human MOLT-4 cells assessed as inhibition of cell growth incubated for 48 hrs by MTT assay. It counts as functional, cell-based. Conditions: MOLT-4, 48 h.
In another assay the test system is PC-3. As to the kind of experiment: Antiproliferative activity against human PC-3 cells assessed as inhibition of cell growth incubated for 48 hrs by MTT assay. The note with it: PC-3, 48 h. The class given is functional, cell-based.
Assay [3] deals with HCT-116. The assay is described as follows: Antiproliferative activity against human HCT-116 cells assessed as inhibition of cell growth incubated for 48 hrs by MTT assay. It counts as functional, cell-based. The note with it: HCT-116, 48 h.
For assay [4], the target named is T2, Histone deacetylase 1 (Homo sapiens, UniProt Q13547). As to the kind of experiment: Inhibition of HDAC1 in human HeLa nuclear extract using Boc-Lys(Ac)-AMC or Boc-Lys(Tfa)-AMC as substrate preincubated for 5 mins followed by substrate addition and measured after 30 mins by fluorescence assay. The class given is cell-free.
T2 sequence (Q13547 whole entry): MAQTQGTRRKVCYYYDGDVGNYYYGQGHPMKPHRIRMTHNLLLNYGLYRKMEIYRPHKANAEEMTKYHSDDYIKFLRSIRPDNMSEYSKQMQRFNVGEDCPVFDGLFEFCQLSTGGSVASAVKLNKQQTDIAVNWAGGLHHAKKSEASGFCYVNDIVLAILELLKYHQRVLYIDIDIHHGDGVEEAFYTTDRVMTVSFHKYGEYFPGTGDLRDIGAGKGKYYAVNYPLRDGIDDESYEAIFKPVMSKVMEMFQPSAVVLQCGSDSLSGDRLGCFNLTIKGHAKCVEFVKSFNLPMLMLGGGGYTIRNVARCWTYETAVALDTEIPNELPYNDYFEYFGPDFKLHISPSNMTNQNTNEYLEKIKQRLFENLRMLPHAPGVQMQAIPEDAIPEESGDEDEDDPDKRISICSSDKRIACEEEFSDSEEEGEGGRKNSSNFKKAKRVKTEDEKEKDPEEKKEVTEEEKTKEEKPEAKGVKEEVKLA
The target of assay [5] is Histone deacetylase. The assay is described as follows: Inhibition of HDAC in human HeLa nuclear extract using Boc-Lys(Ac)-AMC or Boc-Lys(Tfa)-AMC as substrate preincubated for 5 mins followed by substrate addition and measured after 30 mins by fluorescence assay. It counts as cell-free.
Another assay relates to K562. As to the kind of experiment: Antiproliferative activity against human K562 cells assessed as inhibition of cell growth incubated for 48 hrs by MTT assay. The class given is functional, cell-based. Conditions: K562, 48 h.
A further assay concerns the target Ephrin type-A receptor 2 (Homo sapiens, UniProt P29317). The assay is described as follows: Inhibition of EphA2 (unknown origin) incubated for 30 mins by TR-FRET assay.
The target in assay [6] is Histone deacetylase. The assay is described as follows: Inhibition of HDAC (unknown origin). The class given is protein assay, Homo sapiens.
The next assay has as its system RPMI-8226. As to the kind of experiment: Antiproliferative activity against human RPMI-8226 cells assessed as inhibition of cell growth incubated for 72 hrs by XTT assay. The class given is functional, cell-based. The note with it: RPMI-8226, 72 h.
Assay [7] addresses Histone deacetylase (Homo sapiens) (UniProt Q13547+O15379+Q9UBN7+Q92769+Q9UQL6+Q8WUI4+Q9BY41+Q96DB2+P56524+Q9UKV0+Q969S8). The assay is described as follows: Inhibition of HDAC in human RPMI-8226 cells at 10 uM incubated for 8 hrs relative to control. It counts as cell-based.
Assay [8] is described as follows: Antiproliferative activity against human Bortezomib-resistant RPMI-8226 cells assessed as inhibition of cell growth incubated for 72 hrs by XTT assay. Conditions: Bortezomib-resistant RPMI-8226, 72 h. It counts as functional, cell-based.
The subject of the next assay is SK-MEL-1. The assay is described as follows: Antitumor activity against human SK-MEL-1 cells assessed as tumor growth inhibition at 30 mg/kg, ip administered for 28 days. The class given is functional. Conditions: SK-MEL-1, 672 h, time 28 day, read-out: TGI.
Assay [9] can be described thus: Antiproliferative activity against human MET-1 cells assessed as inhibition of cell growth. It counts as functional, cell-based.
Assay [10] in a line: Antiproliferative activity against human SCCIC1 cells assessed as inhibition of cell growth. The class given is functional, cell-based.
Assay [11] deals with HCT-116. The assay is described as follows: Antiproliferative activity against human HCT-116 cells assessed as inhibition of cell growth. The class given is functional, cell-based.
Assay [12] has as its target T2, Histone deacetylase 1. The assay is described as follows: Inhibition of HDAC1 (unknown origin).
Assay [13] addresses T1, Histone deacetylase 2. As to the kind of experiment: Inhibition of HDAC2 (unknown origin).
The next assay deals with HepG2. The assay is described as follows: Antiproliferative activity against human HepG2 cells assessed as inhibition of cell growth incubated for 72 hrs by CCK-8 assay. Conditions: HepG2, 72 h. The class given is functional, cell-based.
Assay [14] relates to A549. As to the kind of experiment: Antiproliferative activity against human A549 cells assessed as inhibition of cell growth incubated for 72 hrs by CCK-8 assay. The class given is functional, cell-based. The note with it: A549, 72 h.
For a further assay, the system named is NCI-H2228. The assay is described as follows: Antiproliferative activity against human NCI-H2228 cells assessed as inhibition of cell growth incubated for 72 hrs by CCK-8 assay. It counts as functional, cell-based. Conditions: NCI-H2228, 72 h.
The subject of another assay is SK-N-BE(2). As to the kind of experiment: Antiproliferative activity against human SK-N-BE(2) cells assessed as inhibition of cell growth incubated for 72 hrs by CCK-8 assay. The class given is functional, cell-based. The note with it: SKNBE2, 72 h.
In another assay the test system is CT26. The assay is described as follows: Antitumor activity against mouse CT26 cells xenografted in mouse assessed as reduction in tumor volume. Also noted: scale not given: the % may be the effect or the level left. The class given is functional.
The subject of assay [15] is A549. As to the kind of experiment: Antiproliferative activity against human A549 cells assessed as inhibition of cell growth incubated for 48 hrs by CCK-8 assay. The class given is functional, cell-based. Conditions: A549, 48 h.
Assay [16] relates to HCT-116. As to the kind of experiment: Antitumor activity against human HCT-116 cells xenografted in BALB/c nude mouse assessed as increase in increment ratio at 30 mg/kg, po administered for 3 days. It counts as functional. The note with it: time 3 day.
The subject of assay [17] is HCT-116. The assay is described as follows: Antitumor activity against human HCT-116 cells xenografted in BALB/c nude mouse assessed as tumor growth inhibition at 30 mg/kg, po administered for 3 days. The class given is functional. Conditions: HCT-116, 72 h, time 3 day, read-out: TGI.
In the next assay the test system is MCF7. As to the kind of experiment: Antiproliferative activity against human MCF7 cells assessed as inhibition of cell growth incubated for 48 hrs by MTT assay. Conditions: MCF7, 48 h. It counts as functional, cell-based.

T1 sequence (Q92769 whole entry): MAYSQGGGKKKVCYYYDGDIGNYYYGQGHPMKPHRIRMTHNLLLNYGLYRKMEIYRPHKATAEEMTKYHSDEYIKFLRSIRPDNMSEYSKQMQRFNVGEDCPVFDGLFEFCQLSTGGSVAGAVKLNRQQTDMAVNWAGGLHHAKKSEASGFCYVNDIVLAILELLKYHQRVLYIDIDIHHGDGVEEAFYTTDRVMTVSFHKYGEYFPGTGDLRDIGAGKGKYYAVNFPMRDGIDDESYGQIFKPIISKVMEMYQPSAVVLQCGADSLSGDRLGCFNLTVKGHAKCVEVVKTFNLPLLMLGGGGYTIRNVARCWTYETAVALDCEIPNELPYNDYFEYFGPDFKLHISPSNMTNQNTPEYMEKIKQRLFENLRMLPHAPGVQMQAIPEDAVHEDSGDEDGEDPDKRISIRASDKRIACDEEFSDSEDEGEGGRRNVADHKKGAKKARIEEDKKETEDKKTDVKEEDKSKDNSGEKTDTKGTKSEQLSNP
Sequence of Ephrin type-A receptor 2 (P29317 whole entry): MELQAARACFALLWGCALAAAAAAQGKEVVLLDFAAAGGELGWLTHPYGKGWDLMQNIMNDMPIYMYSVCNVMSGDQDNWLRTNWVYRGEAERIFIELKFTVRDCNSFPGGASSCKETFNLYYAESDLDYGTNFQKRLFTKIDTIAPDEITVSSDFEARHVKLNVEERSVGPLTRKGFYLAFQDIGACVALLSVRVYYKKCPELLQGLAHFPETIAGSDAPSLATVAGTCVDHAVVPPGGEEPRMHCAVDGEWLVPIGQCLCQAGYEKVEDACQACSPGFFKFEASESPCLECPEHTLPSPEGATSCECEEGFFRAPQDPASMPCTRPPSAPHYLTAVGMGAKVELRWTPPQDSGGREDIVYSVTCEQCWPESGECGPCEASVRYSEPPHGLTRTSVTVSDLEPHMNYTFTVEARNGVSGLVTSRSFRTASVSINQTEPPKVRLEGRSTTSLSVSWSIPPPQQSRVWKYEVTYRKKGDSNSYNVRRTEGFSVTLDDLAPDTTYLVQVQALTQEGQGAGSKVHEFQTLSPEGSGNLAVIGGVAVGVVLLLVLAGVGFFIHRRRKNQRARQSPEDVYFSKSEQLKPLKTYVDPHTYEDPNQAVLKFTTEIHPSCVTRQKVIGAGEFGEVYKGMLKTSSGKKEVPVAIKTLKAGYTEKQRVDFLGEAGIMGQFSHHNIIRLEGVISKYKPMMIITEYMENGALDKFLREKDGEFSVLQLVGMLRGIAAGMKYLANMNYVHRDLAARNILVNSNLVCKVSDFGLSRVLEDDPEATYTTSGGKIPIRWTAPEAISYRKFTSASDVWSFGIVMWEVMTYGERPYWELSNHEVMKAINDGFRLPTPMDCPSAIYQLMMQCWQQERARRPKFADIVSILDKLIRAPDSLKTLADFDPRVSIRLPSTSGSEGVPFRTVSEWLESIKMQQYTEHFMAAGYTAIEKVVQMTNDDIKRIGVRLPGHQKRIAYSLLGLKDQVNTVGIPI

In the case of `Nc1ccccc1NC(=O)CCCCCOc1no[n+]([O-])c1S(=O)(=O)c1ccccc1`, the half-inhibitory concentration (IC50) turned out to be 410 nM in the assay with HEL; 1140 nM against Histone deacetylase 2 [1]; 560 nM against Histone deacetylase 3; 1500 nM in the assay on HeLa; 770 nM with Jurkat; 980 nM in the assay on A549 [2]. The IC50 in the assay on MOLT-4 was 540 nM; with PC-3, 2500 nM; in the assay with HCT-116 [3], 770 nM; against Histone deacetylase 1 [4], 470 nM.
As for `Nc1ccccc1NC(=O)Nc1ccc(NC(=O)c2cccnc2)cc1`, the 50% inhibitory concentration (IC50) against Histone deacetylase [5] was determined as 940 nM; in the assay with K562, 8360 nM; at Ephrin type-A receptor 2 it was 680 nM.
For `CC(C)C[C@@H](NC(=O)[C@H](Cc1ccccc1)NC(=O)c1cnc(C(=O)Nc2ccccc2N)cn1)B1OC2CC3CC(C3(C)C)[C@@]2(C)O1` (stereo partly specified), the half-inhibitory concentration (IC50) at Histone deacetylase [6] amounted to 23.6 nM; with RPMI-8226, 9.5 nM; in assay [8] it was 158 nM. The same compound showed an inhibition in [7] of 33%.
Turning to `Nc1ccccc1NC(=O)c1ccc(CCCC(=O)Nc2ccc([C@@H]3C[C@H]3N)cc2)cc1`, the inhibition in vivo at 30 mg/kg in the assay on SK-MEL-1 was found to be 61%. For the same compound, the IC50 in [9] came out at 6 nM; in [10], 41 nM.
Take `CN1c2ccc(NCc3ccc(C(=O)Nc4ccccc4N)cc3)cc2C(=O)N2CCc3c([nH]c4ccc(O)cc34)[C@H]21`: the concentration for half-maximal inhibition (IC50) in the assay with HCT-116 [11] is 2150 nM; on Histone deacetylase 1 [12] it was 400 nM; on Histone deacetylase 2 [13] it was 2140 nM.
On to `CC(C)S(=O)(=O)c1ccccc1Nc1nc(Nc2ccc(C(=O)Nc3ccccc3N)cc2)ncc1Cl`, for which the IC50 in the assay on HepG2 turned out to be 10 nM; in the assay with A549 [14], 2 nM; in the assay on NCI-H2228, 110 nM; in the assay on SK-N-BE(2), 3 nM.
Take `Cn1cc(-c2ccc(S(=O)(=O)n3ccc(/C=C/C(=O)Nc4ccccc4N)c3)cc2)cn1` [DOMATINOSTAT]: the Activity in the assay on CT26 is 53%. Besides, the 50% inhibitory concentration (IC50) in the assay with A549 [15] was 7.8 nM.
On to `Nc1ccccc1NC(=O)CCCCOc1no[n+]([O-])c1S(=O)(=O)c1ccccc1`, for which the T/C in the assay with HCT-116 [16] was 57%. The concentration for half-maximal inhibition (IC50) in the assay on HEL was found to be 320 nM; against Histone deacetylase 2 [1], 1460 nM; at Histone deacetylase 3 it was 620 nM; with HeLa, 1230 nM; in the assay on Jurkat, 540 nM; in the assay with A549 [2], 1030 nM. Also, the IC50 in the assay on MOLT-4 was found to be 590 nM; in the assay on PC-3 it was 2690 nM; in the assay with HCT-116 [3], 930 nM; against Histone deacetylase 1 [4], 620 nM. In addition, the inhibition in vivo at 30 mg/kg with HCT-116 [17] is 36%.
Compound `CCN1CCN(c2cc(Nc3ncc(C(=O)Nc4ccccc4N)s3)ncn2)CC1` gave an IC50 on Histone deacetylase [6] of 15000 nM.
In the case of `COc1ccc(C(=O)Nc2ccc(NC(=O)Nc3ccccc3N)cc2)cc1`, the half-maximal inhibitory concentration (IC50) in the assay with MCF7 amounted to 7420 nM; on Histone deacetylase [5] it was 1520 nM; at Ephrin type-A receptor 2, 570 nM; in the assay on HCT-116 [3] it was 5290 nM.
